Data on 4 compounds can be found in article PMC2933066 (Bioorganic & medicinal chemistry letters, 2010).

One experiment deals with tubulin. The experiment is classed as biochemical. The following applies: read-out: Inhibition of tubulin assembly IC50 (μM) ± SD.
The subject of experiment [1] is KB (human epidermoid carcinoma of the nasopharynx). As to conditions: cited from earlier work.
Experiment [2] relates to A549 (human lung adenocarcinoma). As to conditions: cited from earlier work.

The structures appear in SMILES notation. Converted amounts (≈) assume the structure as drawn.

The term IC50 denotes the midpoint of a concentration-inhibition curve. For the compound `CN[C@H]1CCc2cc(OC)c(OP(=O)(O)O)c(OC)c2-c2ccc(SC)c(=O)cc21` [Compound 16], the IC50 with tubulin is greater than 40 µM. In the case of `CCCN([C@H]1CCc2cc(OC)c(OC)c(OC)c2-c2ccc(SC)c(=O)cc21)S(=O)(=O)c1ccccc1[N+](=O)[O-]` [Compound 13], the IC50 in the experiment on tubulin was greater than 40 µM. As for `CN[C@H]1CCc2cc(OC)c(O)c(OC)c2-c2ccc(SC)c(=O)cc21` [Compound 15], the IC50 with tubulin is greater than 40 µM.

Turning to `COc1cc2c(c(OC)c1O)-c1ccc(SC)c(=O)cc1C(NC(C)=O)CC2` (centres unmarked) [Compound 3, 2-Demethylthiocolchicine], the “ED50 against KB” value in experiment [1] was 0.01 µg/mL (≈ 0.0249 µM). In addition, the “ED50 against A549” value in experiment [2] is 0.01 µg/mL (≈ 0.0249 µM).
